Measured values: patent US12678412B2, “Substituted tolans for the modulation of microbial colonization” (BioMendics, LLC, priority 2017, dated 2026)

Tests used:
[1] = system: Pseudomonas aeruginosa ATCC 27312; experiment: Colony forming assay, spread plate, Pseudomonas aeruginosa; type: cell-based; conditions: for Reduction of PA counts: compared to vehicle, Tobramycin and untreated control
Protocol: A fresh culture of pathogenic isolate was used in these examples. The bacterial strains used were Methicillin Resistant Staphylococcus aureus (MRSA USA 300), Pseudomonas aeruginosa ATCC 27312, and Candida albicans ATCC 64550.
FIG. 5 illustrates the spread plate method used in these examples. In sum, agar plates were made, bacteria were diluted to 10^6 or 10^8 CFU/mL, bacteria and drug were mixed together and then plated. Glass spreading beads were used because they give a better bacterial spread. Plates were incubated for 24 hrs then the colonies that formed were counted.
Proliferating cultures of Pseudomonas aeruginosa (PA, ATCC 27312) and Candida albicans (CA, ATCC 64550) were used in a colony forming assay. Freeze-dried bacteria cultures were recovered by swabbing a 3-cm diameter growth area and resuspending it to obtain a final inoculum suspension of approximately 10^6 CFU/mL. The concentration was confirmed using historical optical density measurements. Before bacteria challenge, the tolan compound BM3103 was suspended in 100% diethylene glycol monoethyl ether (Formulation C) with vehicle control consisting solely of the diethylene glycol monoethyl ether. Before plating, 100 μL of the final inoculum (10^6 CFU/mL) was mixed with 200 μL LB broth and 200 μL of BM3103 doses, vehicle, positive control (Tobramycin, 12 μg/mL for PA and 160 μg/mL for CA), or untreated control (phosphate buffered saline). The final plating concentration for the high, middle, and low BM3103 doses were 0.5%, 0.25%, and 0.1% w/v (22 mM, 11 mM, and 4 mM), respectively. The inoculum was plated on agar with centrimide and nalidixate (CN) supplement for PA (though sodium nalidixate or nalixic acid could also be used), and on Tryptic Soy Broth plates for CA experiments, at 37° C. for 24 h. Plates were photographed and counted. The experiment was done in triplicate.
Colony counts for each treatment were tabulated and the Log of the colony forming units/mL (Log CFU/mL) were determined. The mean and standard deviation of the Log CFU/mL were calculated for each treatment. […] The medium and low dose groups reduced PA counts when compared to the vehicle, Tobramycin, and untreated control groups by about 5-fold.

S. typhimurium TA100 = experiment: Dose range finding colony forming assay, strain TA100 with metabolic activation; type: cell-based
Protocol: A series of dose range finding assays were performed with five bacterial strains, S. typhimurium TA97a, TA98, TA100, TA1535, and E. coli WP2 uvrA pKM101, with and without metabolic activation at three plates per dose. The following doses, along with positive and negative controls, were tested: 5000, 2500, 1250, 500, 250, 125, 50, 20, 10, 5, 2, 1, and 0.2 μg/plate. The plates were evaluated for toxicity (a decrease in plate counts with increasing dose and/or a visible thinning of the background lawn) and for precipitation of the test article. Metabolic activation was included in some samples by adding phenobarbital/benzoflavone-induced rat liver S9 fractions with cofactors (S9 mix). Prior to use, freshly thawed aliquots of rat liver S9 were mixed with a sterile cofactor mix. The S9 mix contains a 10% liver S9 concentration and was refrigerated or stored on ice until used. When testing with metabolic activation, the S9 mix was used in the assay tube in place of phosphate buffer.
Dosing formulations were prepared to deliver all doses in a constant volume of 0.1 mL. The highest dose was prepared from test article weighed to the nearest 0.1 mg and the remaining formulations were prepared as serial dilutions from the high dose stock formulation. Using a permanent marking pen or computer printed labels, assay plates were labeled with the project and study numbers and the date. Assay plates and tubes were labeled with a unique identifier, which was used to match the assay tubes with the properly identified minimal glucose agar plate.
The pre-incubation method was used to perform the assay. The assay mix consisted of 0.1 mL of the test article formulation or control article, 0.5 mL S9 mix or phosphate buffer, and 0.1 mL of bacterial culture. Assay tubes were incubated at 37±1° C. with gentle agitation for 20±1 minutes, then 2.0-2.5 mL top agar was added to the assay mix and the top agar/assay mix poured onto appropriately labeled minimal glucose agar plates. Once the top agar hardened, the plates were inverted and incubated at 37±1° C. for 48±2 hours. Plates were counted with the Sorcerer (v. 2.2)/Ames Study Manager (v. 1.2.4) system from Perceptive Instruments (Suffolk, UK). With this system, plate counts are automatically transferred from the plate imager (Sorcerer) to a Study Manager spreadsheet, and the data are stored in a secure manner on an Oracle database. Some plates were hand counted, e.g., if sample precipitate interferes with automatic counting or toxicity results in the formation of microcolonies, in which case, counts for these plates were entered into the spreadsheet manually. Plates were scored also with the extent of colonization by a post fix code.

MRSA USA 400 biofilm = experiment: Biofilm inhibition assay (prevention of biofilm formation); type: cell-based, Staphylococcus aureus; conditions: overnight 37° C.
Protocol: Proliferating cultures of Methicillin Resistant Staphylococcus aureus (MRSA, USA 400) were used in a colony forming assay. Frozen stock cultures of MRSA USA 400 were thawed and grown overnight in tryptic soy broth (TSB) with shaking at 37° C. The overnight culture (0.5-1.0 mL) was added to 100 mL TSB and grown at 37° C. with shaking and monitored for an optical density of 0.55-0.60 in order to obtain a final inoculum suspension of approximately 10^8 CFU/mL.
For the biofilm inhibition assay, 100 μL of MRSA USA 400 inoculum (10^8 CFU/mL) was plated with 100 μL of each BM3103 drug concentration in a 96 well plate. A 0.1 M stock of BM3103 was dissolved in ethanol and serially diluted in TSB across a 96 well plate to obtain final concentrations of 1 mM to 0.002 mM. The drug treated inoculum grew overnight at 37° C. without shaking.

`COc1ccc(C#Cc2ccc(O)cc2)cc1` [BM3103, 4-hydroxy-4′-methoxytolan] was tested, and the “Dose dependence of effect on PA bacterial counts” value ([1]; 0.1-0.5% w/v, Formulation C) was “dose dependent inhibitory effect”, the PA bacterial counts ([1]; high dose 0.5% w/v, 22 mM, diethylene glycol monoethyl ether (Formulation C), 24 h, FIG. 7) was “no bacteria colonies” and the “Reduction of PA counts” value ([1]; low dose 0.1% w/v, 4 mM, Formulation C, 24 h) was “about 5 fold”. For the same molecule, the “Reduction of PA counts” value ([1]; medium dose 0.25% w/v, 11 mM, Formulation C, 24 h) was “about 5 fold”, the Colony forming units/plate (S. typhimurium TA100; 0.2 μg/plate) was 78 colony forming units/plate and the Individual colony counts (S. typhimurium TA100; 0.2 μg/plate) was 78. The Colony forming units/plate (S. typhimurium TA100; 1 μg/plate) was 56.0 colony forming units/plate, the Individual colony counts (S. typhimurium TA100; 1 μg/plate) was 56 and the Colony forming units/plate (S. typhimurium TA100; 2 μg/plate) was 36.0 colony forming units/plate. The Individual colony counts (S. typhimurium TA100; 2 μg/plate) was 360, the Colony forming units/plate (S. typhimurium TA100; 5 μg/plate) was 74.0 colony forming units/plate and the Individual colony counts (S. typhimurium TA100; 5 μg/plate) was 74. The Colony forming units/plate (S. typhimurium TA100; 10 μg/plate) was 38.0 colony forming units/plate, the Individual colony counts (S. typhimurium TA100; 10 μg/plate) was 38 and the “Plate postfix code (individual colony counts)” value (“Plate postfix code” below) (S. typhimurium TA100; 10 μg/plate) was “S T”. For the same molecule, the Colony forming units/plate (S. typhimurium TA100; 20 μg/plate) was 54.0 colony forming units/plate, the Individual colony counts (S. typhimurium TA100; 20 μg/plate) was 54 and the Colony forming units/plate (S. typhimurium TA100; 50 μg/plate) was 0.0 colony forming units/plate. For the same molecule, the Individual colony counts (S. typhimurium TA100; 50 μg/plate) was 0, the Colony forming units/plate (S. typhimurium TA100; 125 μg/plate) was 0.0 colony forming units/plate and the Individual colony counts (S. typhimurium TA100; 125 μg/plate) was 0. The Colony forming units/plate (S. typhimurium TA100; 250 μg/plate) was 0.0 colony forming units/plate, the Individual colony counts (S. typhimurium TA100; 250 μg/plate) was 0 and the Colony forming units/plate (S. typhimurium TA100; 500 μg/plate) was 0.0 colony forming units/plate. The Individual colony counts (S. typhimurium TA100; 500 μg/plate) was 0, the Colony forming units/plate (S. typhimurium TA100; 1250 μg/plate) was 0.0 colony forming units/plate and the Individual colony counts (S. typhimurium TA100; 1250 μg/plate) was 0. The “Plate postfix code” value (S. typhimurium TA100; 1250 μg/plate) was “A P”, the Colony forming units/plate (S. typhimurium TA100; 2500 μg/plate) was 0.0 colony forming units/plate and the Individual colony counts (S. typhimurium TA100; 2500 μg/plate) was 0. For the same molecule, the “Plate postfix code” value (S. typhimurium TA100; 2500 μg/plate) was “A P”, the Colony forming units/plate (S. typhimurium TA100; 5000 μg/plate) was 0.0 colony forming units/plate and the Individual colony counts (S. typhimurium TA100; 5000 μg/plate) was 0. The “Plate postfix code” value (S. typhimurium TA100; 5000 μg/plate) was “A P”, the “Biofilm formation of MRSA USA 400” value (MRSA USA 400 biofilm; 0.008 mM, FIG. 12B) was “Mild biofilm formation” and the “Biofilm formation of MRSA USA 400” value (MRSA USA 400 biofilm; 0.625 mM, FIG. 12A) was “inhibits biofilm formation of MRSA USA 400 completely”. The “Biofilm formation of MRSA USA 400” value (MRSA USA 400 biofilm; about 0.002 mM, FIGS. 12C-12D) was “no effect on biofilm formation” and the “Concentrations that completely inhibit biofilm formation” value (MRSA USA 400 biofilm) was “above 0.0625 mM”.
